Data published in PMC9077134 (OncoTargets and therapy, 2022).

Key:
[1] = Thermodynamic solubility
[2] = Log D7.4 shake flask assay; assay type: physicochemical; details: octanol/PBS, pH 7.4
[3] = Chemical stability assay; assay type: physicochemical; details: 37 °C
[4] = Caco-2 bidirectional permeability assay; details: human, Caco-2, 10 µM, 37 °C
[5] = system: MCF7 (EGFR positive cancer cell line); experiment: LDH release cytotoxicity / cell viability assay in MCF7; assay type: cell-based; details: Homo sapiens
[6] = buffer pH 2.0, pH 2, Chemical Stability - Half-Life, pH 2.0, 5 µM
[7] = buffer pH 10.0, pH 10, Chemical Stability - Half-Life, pH 10.0, 5 µM

## CCCSc1ccc2nc(NC(=O)OC)[nH]c2c1 [Albendazole, albendazole]
[1]; pH 4.5
  solubility at 24 h: < 1 µg/mL
[1]; pH 7.4, PBS, room temperature, 24 h
  Thermodynamic Solubility: 0.72 ± 0.2 µg/mL
[2]
  logD at 4 h: 3.6 ± 0.1

## COc1ccc2[nH]c([S+]([O-])Cc3ncc(C)c(OC)c3C)nc2c1 (stereo not shown) [Omeprazole]
[3]; [6]
  half-life at 5 µM: 10.2 ± 3.1 min
[3]; [7]
  half-life at 5 µM: 55.3 ± 11.4 min

## CC(C)[N+](C)(CCOC(=O)C1c2ccccc2Oc2ccccc21)C(C)C [Propantheline bromide]
[3]; [6]
  half-life at 5 µM: 82.9 ± 14.8 min
[3]; [7]
  half-life at 5 µM: 8.3 ± 2.6 min

## CC(C)NCC(O)COc1cccc2ccccc12 (stereo not shown) [Propranolol, propranolol]
[4]; Caco-2, pH 7.4, Papp (Apical to Basal), apical to basal
  Papp at 2 h, 10 µM: 29 ± 1.2 ×10⁻⁶ cm/s
[4]; Caco-2, pH 7.4, Papp (Basal to Apical), basal to apical
  Papp at 2 h, 10 µM: 21.1 ± 0.3 ×10⁻⁶ cm/s

## CC(C)(O)CC(=O)NCCn1ccc2ncnc(Nc3ccc(Oc4cccc(C(F)(F)F)c4)c(Cl)c3)c21 [TAK-285]
[5]
  IC50: 15.5 ± 5.6 µM
